Data published in patent US6358883B1, “Pesticidal and parasiticidal use of 1-aryl-1-(substituted thio, sulfinyl and sulfonyl)-2-nitroethane compounds” (American Cyanamid Company, priority 1998, dated 2002).

Legend:
Format in all cases: in vivo
[1] = system: Aphis gossypii, cotton aphid (CA); test: Cotton aphid (CA) cotyledon dip test; set-up: key: 0 = no effect; 1 = 10-25% kill; 2 = 26-35% kill; 3 = 36-45% kill; 4 = 46-55% kill; 5 = 56-65% kill; 6 = 66-75% kill; 7 = 76-85% kill; 8 = 86-99% kill; 9 = 100% kill; conditions: mortality after 5 days
Summary of the method: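 Mortality was scored 5 days after dipping aphid-infested cotyledons, colonised overnight from a transfer leaf, into water dilutions of a 35% acetone/water compound solution.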

[2] = system: Diabrotica virgifera virgifera Leconte, 2nd instar western corn rootworm (WCR); test: Western corn rootworm (WCR) soil test; set-up: key: 0 = no effect; 1 = 10-25% kill; 2 = 26-35% kill; 3 = 36-45% kill; 4 = 46-55% kill; 5 = 56-65% kill; 6 = 66-75% kill; 7 = 76-85% kill; 8 = 86-99% kill; 9 = 100% kill
Summary of the method: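 Ten 2nd-instar rootworm larvae are placed in jars of moist soil with millet seed and talc treated with 1.25 mg active ingredient (roughly 50 kg/ha) from a 35% acetone-in-water solution. After 5 days mortality is scored, counting missing larvae as dead.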

[3] = system: M. incognita (Root Knot Nematode) larvae; test: Evaluation of test compounds against M. incognita larvae in microtiter plate wells (movement score); conditions: larvae scored for movement after 20-24 hours; further: key: A score of '9' indicates inactive worms with a straight, sticklike morphology; A score of '8' indicates inactive worms with a limp, curled or curved morphology; A score of '7' indicates dead/paralyzed worms after 72 hours
Summary of the method: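 Scoring is by larval movement: dead or paralyzed worms count as positive, and a "7" means dead/paralyzed at 72 hours. Freshly hatched root-knot larvae (50-65 per well) in buffered S Medium were incubated with compounds under plate sealers for 20-24 h before the first read.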

[4] = system: Tetranychus urticae (OP-resistant strain), 2-spotted spider mite (TSM); test: 2-spotted spider mite (TSM) plant dip test; set-up: key: 0 = no effect; 1 = 10-25% kill; 2 = 26-35% kill; 3 = 36-45% kill; 4 = 46-55% kill; 5 = 56-65% kill; 6 = 66-75% kill; 7 = 76-85% kill; 8 = 86-99% kill; 9 = 100% kill; conditions: mortality after 2 days
Summary of the method: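 Mortality counted 2 days after a 3 s agitated dip of infested Sieva lima bean plants. Compound came from a 10,000 ppm stock in 35% aqueous acetone, with further dilution in water. Each primary leaf carried about 100 OP-resistant mites, allowed to settle ~2 h before dipping.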

[5] = system: Spodoptera eridania, eggs-southern armyworm (SAW-Eggs); test: Southern armyworm eggs (SAW-Eggs) treated diet test; set-up: key: 0 = no effect; 1 = 10-25% kill; 2 = 26-35% kill; 3 = 36-45% kill; 4 = 46-55% kill; 5 = 56-65% kill; 6 = 66-75% kill; 7 = 76-85% kill; 8 = 86-99% kill; 9 = 100% kill; conditions: mortality after 7 days
Summary of the method: (§1)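 Eggs of S. eridania or D. undecimpunctata howardi were set on artificial diet pretreated with test solution (10,000 ppm stock in 35% aqueous acetone, water dilutions) and dried. Wells were sealed with vented clear covers, and mortality was scored at day 7.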

[6] = system: C. elegans (Bristol strain); test: Evaluation of test compounds against C. elegans (motility, 96-well plate); set-up: key: 9=complete kill in 4 hours; 8=complete kill in 24 hours; 7=markedly reduced motility in approximately 95% of worms in 24 hours; 0=normal motility, same as controls; conditions: motility at 4 and 24 hours
Summary of the method: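 Activity is a semi-quantitative visual score of adult and larval movement, read at 4 h and 24 h post-immersion at 20 °C after gentle tapping. Worms were suspended in Na buffer in wells where compound, dissolved in 80% acetone, had been evaporated.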

[7] = system: Spodoptera eridania, 2nd instar larvae, southern armyworm (SAW); test: Southern armyworm (SAW) leaf dip test; set-up: key: 0 = no effect; 1 = 10-25% kill; 2 = 26-35% kill; 3 = 36-45% kill; 4 = 46-55% kill; 5 = 56-65% kill; 6 = 66-75% kill; 7 = 76-85% kill; 8 = 86-99% kill; 9 = 100% kill
Summary of the method: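 Ten 2nd instar caterpillars feed on a Sieva lima bean leaf that was dipped 3 seconds in test solution (stock 10,000 ppm in 35% acetone/water, water-diluted). Five days later, larvae are assessed for death, feeding reduction or abnormal molting.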

[8] = system: Diabrotica undecimpunctata howardi, eggs-southern corn rootworm (SCR-Eggs); test: Southern corn rootworm eggs (SCR-Eggs) treated diet test; set-up: key: 0 = no effect; 1 = 10-25% kill; 2 = 26-35% kill; 3 = 36-45% kill; 4 = 46-55% kill; 5 = 56-65% kill; 6 = 66-75% kill; 7 = 76-85% kill; 8 = 86-99% kill; 9 = 100% kill; conditions: mortality after 7 days
Summary of the method: as §1

SMILES	CA (300 ppm) rating [1]	WCR (50 ppm) rating [2]	M. incognita (150 ppm) score [3]	TSM (300 ppm) rating [4]	SAW Eggs (300 ppm) rating [5]	Rating Against C. elegans (150 ppm) [6]	SAW (300 ppm) rating [7]	SCR Eggs (1000 ppm) rating [8]
CCCCOC(=O)CSC(C[N+](=O)[O-])c1ccc(OC)cc1 (stereo not shown) [Example 49]	0	0	9	0	0	9	0	0
CCCCC(CC)COC(=O)CSC(C[N+](=O)[O-])c1ccc2c(c1)OCO2 (stereo not shown) [Example 22]	0	0	0	0	0	0	0	0
CCCSC(C[N+](=O)[O-])c1c(Cl)cccc1Cl (stereo not shown) [Example 136]	0	0	0	0	0	0	0	0
C=CCSC(C[N+](=O)[O-])c1ccc2ccccc2c1 (stereo not shown) [Example 125]	0	0	0	0	0	0	0	0
CCCOC(=O)CSC(C[N+](=O)[O-])c1ccccc1 (racemic) [Example 105]	0	3 (3 = 36-45% kill)	0	0	0	9	3 (3 = 36-45% kill)	0
CCCCOC(=O)CSC(C[N+](=O)[O-])c1cccnc1 (stereo not shown) [Example 173]	0	0	9	0	0	8	0	0
C=CCSC(C[N+](=O)[O-])c1ccccc1 (stereo not shown) [Example 2]			9		0	0		0
CCCOC(=O)CSC(C[N+](=O)[O-])c1cccc(C#N)c1 (racemic) [Example 100]	0	0	0	0	0	8	0	0
O=C(O)CSC(C[N+](=O)[O-])c1ccc2ccccc2c1 (racemic) [Example 109]	0	0	0	0	0	9	0	0
O=C(O)CSC(C[N+](=O)[O-])c1ccc(OC(F)(F)F)cc1 (stereo not shown) [Example 127]	0	0	9	0	0	9	0	0
CCCSC(C[N+](=O)[O-])c1cccnc1 (stereo not shown) [Example 175]	0	0	9	0	0	0	0	0
CCOC(=O)CSC(C[N+](=O)[O-])c1ccc(C)cc1 (stereo not shown) [Example 5]	0	4 (4 = 46-55% kill)	9	0	0	9	0	0
CCCOC(=O)CSC(C[N+](=O)[O-])c1cccnc1 (stereo not shown) [Example 178]	0	0	9	0	0	0	0	0
O=[N+]([O-])CC(SCc1ccccc1)c1ccc2ccccc2c1 (racemic) [Example 116]	0	0	0	0	0	0	0	0
CCOC(=O)CSC(C[N+](=O)[O-])c1cccnc1 (stereo not shown) [Example 172]	0	0	9	0	0	8	0	0
C=CCSC(C[N+](=O)[O-])c1cccc([N+](=O)[O-])c1 (stereo not shown) [Example 129]	0	0	0	0	0	0	0	0
C=CCSC(C[N+](=O)[O-])c1ccc(OC)cc1 (stereo not shown) [Example 54]	0	5 (5 = 56-65% kill)	9	0	0	9	0	0
CCCSC(C[N+](=O)[O-])c1ccc(OC)cc1 (stereo not shown) [Example 53]	0	0	9	0	0	9	4 (4 = 46-55% kill)	0
COC(=O)CSC(C[N+](=O)[O-])c1ccc(OC)cc1 (stereo not shown) [Example 47]	0	4 (4 = 46-55% kill)	9	4 (4 = 46-55% kill)	0	9	0	0
O=[N+]([O-])CC(SCc1ccccc1)c1cccnc1 (stereo not shown) [Example 177]	0	0	9	0	0	0	0	0
COc1cccc(C(C[N+](=O)[O-])SCc2ccco2)c1 (stereo not shown) [Example 158]	0	0		0	0	9	0	0
